These are literature values, as cited in patent US7378114B2, “Method for producing soluble composition containing isoflavones” (Fuji Oil Company, Limited, priority 2001, dated 2008).

The structures appear in SMILES notation.

The conditions of this data set: under 25° C.; according to the literature; per 100 g solvent.

Regarding `O=c1c(-c2ccccc2)coc2ccccc12` [isoflavone], the solubility in water was 0.002 to 0.003 g.
